Reference: patent US9708314B2, “Heterocyclic amide compound” (NISSAN CHEMICAL INDUSTRIES, LTD., priority 2013, dated 2017)

Assays:
Assay type in all cases: in vivo
Apera spica-venti. = experiment: Test Example 4: herbicidal effect by application to foliage (diluvial soil, plastic box); conditions: for L (Apera spica-venti.) herbicidal effect grade: Application herbicide amount 320 g/ha, foliage application
Method in brief: (§1)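 Greenhouse plants (25° C. to 30° C., 14 d, diluvial soil) receive a foliar spray of water-diluted emulsifiable formulation at defined g/ha. Grading after 3 weeks uses a six-step herbicidal-ratio scale, with 4 covering 70% to <90% and 1 covering 5% to <20%.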

Chenopodium album = experiment: as above; conditions: for O (Chenopodium album) herbicidal effect grade: Application herbicide amount 320 g/ha, foliage application
Method in brief: as §1

Digitaria ciliaris = experiment: as above; conditions: for F (Digitaria ciliaris) herbicidal effect grade: Application herbicide amount 320 g/ha, foliage application
Method in brief: as §1

Veronica persica = experiment: as above; conditions: for R (Veronica persica) herbicidal effect grade: Application herbicide amount 320 g/ha, foliage application
Method in brief: as §1

Galium spurium = experiment: as above; conditions: for Q (Galium spurium) herbicidal effect grade: Application herbicide amount 320 g/ha, foliage application
Method in brief: as §1

[1] = test system: Echinochloa crus-galli var. crus-galli; experiment: as above; conditions: for H (Echinochloa crus-galli var. crus-galli) herbicidal effect grade: Application herbicide amount 320 g/ha, foliage application
Method in brief: as §1

Lolium multiflorum Lam. = experiment: as above; conditions: for K (Lolium multiflorum Lam.) herbicidal effect grade: Application herbicide amount 320 g/ha, foliage application
Method in brief: as §1

Amaranthus retroflexus = experiment: as above; conditions: for N (Amaranthus retroflexus) herbicidal effect grade: Application herbicide amount 320 g/ha, foliage application
Method in brief: as §1

Alopecurus myosuroides = experiment: as above; conditions: for J (Alopecurus myosuroides) herbicidal effect grade: Application herbicide amount 320 g/ha, foliage application
Method in brief: as §1

Avena fatua = experiment: as above; conditions: for I (Avena fatua) herbicidal effect grade: Application herbicide amount 320 g/ha, foliage application
Method in brief: as §1

Abutilon theophrasti = experiment: as above; conditions: for M (Abutilon theophrasti) herbicidal effect grade: Application herbicide amount 320 g/ha, foliage application
Method in brief: as §1

Setaria viridis = experiment: as above; conditions: for G (Setaria viridis) herbicidal effect grade: Application herbicide amount 320 g/ha, foliage application
Method in brief: as §1

[2] = test system: Echinochloa oryzacola Vasing.; experiment: Test Example 2: herbicidal activity, application during weed generation in submerged conditions; conditions: Eighteenth Table; application herbicide amount 320 g/ha
Method in brief: (§2)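 Seeds were sown together in alluvial soil kept under 4 cm of water and grown at 25 °C to 30 °C. Once plants reached the one- to two-leaf stage, the diluted emulsion was applied to the water surface at a predetermined g/ha amount, and effects were rated 0–5 after three weeks.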

Monochoria vaginalis = experiment: as above; conditions: Eighteenth Table; application herbicide amount 320 g/ha
Method in brief: as §2

Scirpus juncoides = experiment: as above; conditions: Eighteenth Table; application herbicide amount 320 g/ha
Method in brief: as §2

[3] = application to foliage, application herbicide amount 320 g/ha

SMILES	L (Apera spica-venti.) herbicidal effect grade (Apera spica-venti.)	O (Chenopodium album) herbicidal effect grade (Chenopodium album)	F (Digitaria ciliaris) herbicidal effect grade (Digitaria ciliaris)	R (Veronica persica) herbicidal effect grade (Veronica persica)	Q (Galium spurium) herbicidal effect grade (Galium spurium)	H (Echinochloa crus-galli var. crus-galli) herbicidal effect grade [1]	K (Lolium multiflorum Lam.) herbicidal effect grade (Lolium multiflorum Lam.)	N (Amaranthus retroflexus) herbicidal effect grade (Amaranthus retroflexus)	J (Alopecurus myosuroides) herbicidal effect grade (Alopecurus myosuroides)	I (Avena fatua) herbicidal effect grade (Avena fatua)	M (Abutilon theophrasti) herbicidal effect grade (Abutilon theophrasti)	G (Setaria viridis) herbicidal effect grade (Setaria viridis)	A (Echinochloa oryzicola Vasing.) herbicidal ratio grade [2]	C (Monochoria vaginalis) herbicidal ratio grade (Monochoria vaginalis)	B (Scirpus juncoides) herbicidal ratio grade (Scirpus juncoides)	further results
Cc1nnc(NC(=O)c2ccc(C(F)(F)F)n3c(NCC(F)(F)F)nnc23)o1 [1-131]	0 (Herbicidal ratio of 5% or less (almost no effect))	5 (Herbicidal ratio of 90% or more (almost completely withered))	4 (Herbicidal ratio of 70% or more and less than 90%)	3 (Herbicidal ratio of 40% or more and less than 70%)	0 (Herbicidal ratio of 5% or less (almost no effect))	4 (Herbicidal ratio of 70% or more and less than 90%)	0 (Herbicidal ratio of 5% or less (almost no effect))	3 (Herbicidal ratio of 40% or more and less than 70%)	0 (Herbicidal ratio of 5% or less (almost no effect))	0 (Herbicidal ratio of 5% or less (almost no effect))	3 (Herbicidal ratio of 40% or more and less than 70%)	3 (Herbicidal ratio of 40% or more and less than 70%)	0 (Herbicidal ratio of 5% or less (almost no effect))	0 (Herbicidal ratio of 5% or less (almost no effect))	1 (Herbicidal ratio of 5% or more and less than 20%)	
CCSc1nnc2c(C(=O)Nc3nnco3)ccc(C(F)(F)F)n12 [1-106]	3 (Herbicidal ratio of 40% or more and less than 70%)	5 (Herbicidal ratio of 90% or more (almost completely withered))	5 (Herbicidal ratio of 90% or more (almost completely withered))	5 (Herbicidal ratio of 90% or more (almost completely withered))	4 (Herbicidal ratio of 70% or more and less than 90%)	5 (Herbicidal ratio of 90% or more (almost completely withered))	3 (Herbicidal ratio of 40% or more and less than 70%)	5 (Herbicidal ratio of 90% or more (almost completely withered))	1 (Herbicidal ratio of 5% or more and less than 20%)	4 (Herbicidal ratio of 70% or more and less than 90%)	4 (Herbicidal ratio of 70% or more and less than 90%)	5 (Herbicidal ratio of 90% or more (almost completely withered))	5 (Herbicidal ratio of 90% or more (almost completely withered))	4 (Herbicidal ratio of 70% or more and less than 90%)	5 (Herbicidal ratio of 90% or more (almost completely withered))	
Cn1nnnc1NC(=O)c1ccc(C(F)(F)F)n2c(-c3ccc(Cl)cc3)nnc12 [2-012]													4 (Herbicidal ratio of 70% or more and less than 90%)	5 (Herbicidal ratio of 90% or more (almost completely withered))	5 (Herbicidal ratio of 90% or more (almost completely withered))	L: herbicidal effect on Apera spica-venti. (Apera spica-venti.; [3]): 2 (Herbicidal ratio of 20% or more and less than 40%); O: herbicidal effect on Chenopodium album (Chenopodium album; [3]): 5 (Herbicidal ratio of 90% or more (almost completely withered)); F: herbicidal effect on Digitaria ciliaris (Digitaria ciliaris; [3]): 4 (Herbicidal ratio of 70% or more and less than 90%); R: herbicidal effect on Veronica persica (Veronica persica; [3]): 4 (Herbicidal ratio of 70% or more and less than 90%); Q: herbicidal effect on Galium spurium (Galium spurium; [3]): 4 (Herbicidal ratio of 70% or more and less than 90%); H: herbicidal effect on Echinochloa crus-galli var. crus-galli [1, 3]: 4 (Herbicidal ratio of 70% or more and less than 90%); K: herbicidal effect on Lolium multiflorum Lam. (Lolium multiflorum Lam.; [3]): 2 (Herbicidal ratio of 20% or more and less than 40%); N: herbicidal effect on Amaranthus retroflexus (Amaranthus retroflexus; [3]): 5 (Herbicidal ratio of 90% or more (almost completely withered)); J: herbicidal effect on Alopecurus myosuroides (Alopecurus myosuroides; [3]): 2 (Herbicidal ratio of 20% or more and less than 40%); I: herbicidal effect on Avena fatua (Avena fatua; [3]): 3 (Herbicidal ratio of 40% or more and less than 70%); M: herbicidal effect on Abutilon theophrasti (Abutilon theophrasti; [3]): 5 (Herbicidal ratio of 90% or more (almost completely withered)); G: herbicidal effect on Setaria viridis (Setaria viridis; [3]): 1 (Herbicidal ratio of 5% or more and less than 20%)
COc1cc(OC)cc(-c2nnc3c(C(=O)Nc4nnco4)ccc(C(F)(F)F)n23)c1 [1-148]	2 (Herbicidal ratio of 20% or more and less than 40%)	5 (Herbicidal ratio of 90% or more (almost completely withered))	4 (Herbicidal ratio of 70% or more and less than 90%)	5 (Herbicidal ratio of 90% or more (almost completely withered))	4 (Herbicidal ratio of 70% or more and less than 90%)	5 (Herbicidal ratio of 90% or more (almost completely withered))	3 (Herbicidal ratio of 40% or more and less than 70%)	5 (Herbicidal ratio of 90% or more (almost completely withered))	1 (Herbicidal ratio of 5% or more and less than 20%)	1 (Herbicidal ratio of 5% or more and less than 20%)	3 (Herbicidal ratio of 40% or more and less than 70%)	3 (Herbicidal ratio of 40% or more and less than 70%)	5 (Herbicidal ratio of 90% or more (almost completely withered))	4 (Herbicidal ratio of 70% or more and less than 90%)	5 (Herbicidal ratio of 90% or more (almost completely withered))	
Cc1nnc(NC(=O)c2ccc(C(F)(F)F)n3c(N(C)C(C)C)nnc23)o1 [1-132]	2 (Herbicidal ratio of 20% or more and less than 40%)	5 (Herbicidal ratio of 90% or more (almost completely withered))	4 (Herbicidal ratio of 70% or more and less than 90%)	4 (Herbicidal ratio of 70% or more and less than 90%)	2 (Herbicidal ratio of 20% or more and less than 40%)	5 (Herbicidal ratio of 90% or more (almost completely withered))	1 (Herbicidal ratio of 5% or more and less than 20%)	3 (Herbicidal ratio of 40% or more and less than 70%)	1 (Herbicidal ratio of 5% or more and less than 20%)	1 (Herbicidal ratio of 5% or more and less than 20%)	4 (Herbicidal ratio of 70% or more and less than 90%)	3 (Herbicidal ratio of 40% or more and less than 70%)	4 (Herbicidal ratio of 70% or more and less than 90%)	4 (Herbicidal ratio of 70% or more and less than 90%)	4 (Herbicidal ratio of 70% or more and less than 90%)	
